Test results taken from PubChem BioAssay AID1963847 (Molecular Pharmacology Branch, DTP, NCI, 2024).
Values joined by “and” are separate entries in the source; they are usually repeats but may differ in a detail not shown here. Equal entries are not always repeated.

Test system: 415267-285-R-J2-PDC complex spheroid viability
Assay: Anticancer human tumor 415267-285-R-J2-PDC patient-derived breast carcinoma cell line growth inhibition [POLQ]
Conditions: for viability, T/C: stronger effect = lower value; active means viability on the fitted dose curve at most 10% of control; inactive means the rest
Procedure: Multicellular complex tumor spheroid response to Polymerase (POL) inhibitors (novobiocin, ART-558, RP6685) in combination with a variety of drugs and investigational agents in selected tumor cell lines
The POL inhibitors (novobiocin, ART-558, and RP6685) were evaluated both individually and in combination with standard of care and investigational anticancer small molecules within a complex spheroid model of solid tumors. . Complex spheroids include a stromal component modeled by human endothelial cells (HUVEC) and fibroblasts modeled by human mesenchymal stem cells (MSCs). The concentration ranges selected for each drug and investigational agent were based upon clinically achievable concentrations if the clinical Cmax of the agent was known.
Compounds. The drugs and investigational agents: novobiocin (NSC847541), ART-558 (NSC835418), RP-6685 (NSC848927), peposertib (NSC802822), ceralasertib (NSC780249), elimusertib (NSC800525), camonsertib (NSC841442), AZD-1390 (NSC803789), olaparib (NSC753686), talazoparib (NSC767125), rucaparib (NSC756644), sotorasib (NSC818433), MRTX-1133 (NSC836407), SN-38 (NSC673596), topotecan (NSC609699), epotoside (NSC141540), doxorubicin (NSC123127), gemcitabine (NSC613327), 5-fluorouracil (NSC19893), paclitaxel (NSC125973), vemurafenib (NSC761431), MSA-2 (NSC828583), SN-011 (NSC837082), adavosertib (NSC754352), prexasertib (NSC758257), carboplatin (NSC241240) and oxaliplatin (NSC266046), were obtained from the National Cancer Institute (NCI) Developmental Therapeutics Program Chemical Repository (21). The FDA-approved anticancer drug set is available from the Developmental Therapeutics Program at https://dtp.cancer.gov/organization/dscb/obtaining/. […] The stock solutions were prepared in dimethyl sulfoxide (DMSO, Sigma-Aldrich, St. Louis, MO, cat. D2650), except for the platinum compounds which were prepared in saline (Quality Biological, Gaithersburg, MD, cat. 114-055-101), at 800-fold the tested concentration and stored at -70 degrees C prior to their use. All drugs and investigational agents were tested over a range starting from a high concentration at or near the clinical Cmax and decreasing in half-log increments. If the clinical Cmax for an agent had not been determined, the highest concentration tested was 10 microM, except for SN-38, which was tested at a high concentration of 1 microM.
Cell Culture. All cells were maintained in an incubator at 37 degrees C and 5% CO2 with 95% humidity. The PDC lines were cultured according to standard operating procedures established by the NCI PDMR (https://pdmr.cancer.gov). Table 3 of the manuscript, lists the cell lines along with the number of the three cell types plated to form the mct-spheroids and media for tumor cell growth. After thawing, all PDC lines, except 997537-175-T-J1-PDC and 415267-285-R-J2-PDC, were cultured in Matrigel-coated flasks prepared with a working solution of 1X Ham's F-12 nutrient mix, without supplementation (Thermo Fisher Scientific, cat. 11765054), 100 U/mL penicillin-streptomycin (Thermo Fisher Scientific, cat. 15140122), and 2.5% Matrigel (Corning Inc., Corning, NY, cat. 354248) for the first three passages. The two PDC lines 997537-175-T-J1-PDC and 415267-285-R-J2-PDC were cultured on uncoated flasks. The 857933-349-R-J2-PDC line was cultured in 6C/Colon 1B media containing advanced DMEM/F-12 (Thermo Fisher Scientific, cat. 12634028), 10 mM HEPES (Thermo Fisher Scientific, cat. 15630080), 1X GlutaMAX supplement (Thermo Fisher Scientific, cat. 35050061), 0.1 mg/mL primocin (InvivoGen, San Diego, CA, cat. ant-pm-2), 10% defined fetal bovine serum, heat inactivated (HyClone Laboratories Inc., Logan, UT, cat. SH30070.03HI), 50% L-WRN conditioned media (ATCC, cat. CRL-3276), 1.25 mM N-Acetyl-L-cysteine (Sigma-Aldrich, cat. A9165), 10 mM nicotinamide (Sigma-Aldrich, cat. N0636), 1X B-27 supplement (Thermo Fisher Scientific, cat. 17504044), 1X N-2 supplement (Thermo Fisher Scientific, cat. […]

[1] = curve of first compound, second compound 0.0316 µM
[2] = curve of first compound, second compound 0.1 µM
[3] = curve of first compound, second compound 0.316 µM
[4] = curve of first compound, second compound 1 µM
[5] = curve of first compound, second compound 3.16 µM
[6] = curve of first compound, second compound 10 µM
[7] = second compound 0.0316 µM, first compound 0.0316 µM
[8] = second compound 0.0316 µM, first compound 0.1 µM
[9] = second compound 0.0316 µM, first compound 0.316 µM
[10] = second compound 0.0316 µM, first compound 1 µM
[11] = second compound 0.0316 µM, first compound 3.16 µM
[12] = second compound 0.0316 µM, first compound 10 µM
[13] = second compound 0.1 µM, first compound 0.0316 µM
[14] = second compound 0.1 µM, first compound 0.1 µM
[15] = second compound 0.1 µM, first compound 0.316 µM
[16] = second compound 0.1 µM, first compound 1 µM
[17] = second compound 0.1 µM, first compound 3.16 µM
[18] = second compound 0.1 µM, first compound 10 µM
[19] = second compound 0.316 µM, first compound 0.0316 µM
[20] = second compound 0.316 µM, first compound 0.1 µM
[21] = second compound 0.316 µM, first compound 0.316 µM
[22] = second compound 0.316 µM, first compound 1 µM
[23] = second compound 0.316 µM, first compound 3.16 µM
[24] = second compound 0.316 µM, first compound 10 µM
[25] = second compound 1 µM, first compound 0.0316 µM
[26] = second compound 1 µM, first compound 0.1 µM
[27] = second compound 1 µM, first compound 0.316 µM
[28] = second compound 1 µM, first compound 1 µM
[29] = second compound 1 µM, first compound 3.16 µM
[30] = second compound 1 µM, first compound 10 µM
[31] = second compound 3.16 µM, first compound 0.0316 µM
[32] = second compound 3.16 µM, first compound 0.1 µM
[33] = second compound 3.16 µM, first compound 0.316 µM
[34] = second compound 3.16 µM, first compound 1 µM
[35] = second compound 3.16 µM, first compound 3.16 µM
[36] = second compound 3.16 µM, first compound 10 µM
[37] = second compound 10 µM, first compound 0.0316 µM
[38] = second compound 10 µM, first compound 0.1 µM
[39] = second compound 10 µM, first compound 0.316 µM
[40] = second compound 10 µM, first compound 1 µM
[41] = second compound 10 µM, first compound 3.16 µM
[42] = second compound 10 µM, first compound 10 µM
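Further: spheroids exposed to compounds for one week before readout.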
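Wherever viability, T/C is given: luminescence used as stand-in measure of viable cells.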

CC(C)n1c(=O)n(C)c2cnc3cc(F)c(-c4ccc(OCCCN5CCCCC5)nc4)cc3c21 + Cc1cccc(N(C)C(=O)C2C(O)CCN2c2nc(C)cc(C(F)(F)F)c2C#N)c1
> 10000 nM: IC50 [1] | IC50 [2] | IC50 [3] | IC50 [4] | IC50 [5] | IC50 [6]
inactive: viability, T/C [7] 88.5% | viability, T/C [8] 107% | viability, T/C [9] 100% | viability, T/C [10] 110% | viability, T/C [11] 111% | viability, T/C [12] 93.8% | viability, T/C [13] 89.7% | viability, T/C [14] 88.6% | viability, T/C [15] 105% | viability, T/C [16] 101% | viability, T/C [17] 101% | viability, T/C [18] 80.6% | viability, T/C [19] 103% | viability, T/C [20] 98.5% | viability, T/C [21] 105% | viability, T/C [22] 105% | viability, T/C [23] 111% | viability, T/C [24] 92.5% | viability, T/C [25] 102% | viability, T/C [26] 94.8% | viability, T/C [27] 108% | viability, T/C [28] 109% | viability, T/C [29] 104% | viability, T/C [30] 87.5% | viability, T/C [31] 94.4% | viability, T/C [32] 111% | viability, T/C [33] 96.7% | viability, T/C [34] 105% | viability, T/C [35] 87.5% | viability, T/C [36] 81.9% | viability, T/C [37] 99.1% | viability, T/C [38] 86.1% | viability, T/C [39] 90.4% | viability, T/C [40] 96.8% | viability, T/C [41] 87.6% | viability, T/C [42] 81%

COc1cccc2c1C(=O)c1c(O)c3c(c(O)c1C2=O)CC(O)(C(=O)CO)CC3OC1CC(N)C(O)C(C)O1 (stereo not given)
active: viability, T/C (compound 0.316 µM) 5.21% and 3.68% and 5.75% | viability, T/C (compound 1 µM) 0.77% and 1.01% and 0.92% | viability, T/C (compound 3.16 µM) 2.13% and 1.47% and 1.31% | viability, T/C (compound 10 µM) 2.79% and 3.72% and 2.89%
inactive: viability, T/C (compound 0.0316 µM) 35.4% and 85.5% and 41%
9.21% and 18.3% and 12.6%: viability, T/C (compound 0.1 µM)
< 31.6 nM and 58.1 nM: IC50 (curve of compound)

CC1COCCN1c1cc(-c2ccnn2C)c2ccnc(-c3ccn[nH]3)c2n1 (stereo not given)
active: viability, T/C (compound 0.316 µM) 6.96% and 5.73% and 5.2% | viability, T/C (compound 1 µM) 5.32% and 5.61% and 4.36% | viability, T/C (compound 3.16 µM) 4.68% and 4.28% and 3.7% | viability, T/C (compound 10 µM) 4.66% and 4.53% and 3.78%
< 31.6 nM and 39.6 nM: IC50 (curve of compound)
inactive: viability, T/C (compound 0.0316 µM) 46.6% and 47.9% and 59.5% | viability, T/C (compound 0.1 µM) 10.6% and 13.9% and 11.1%

CCCS(=O)(=O)Nc1ccc(F)c(C(=O)c2c[nH]c3ncc(-c4ccc(Cl)cc4)cc23)c1F
> 10000 nM: IC50 (curve of compound)
inactive: viability, T/C (compound 0.0316 µM) 96.6% and 91.5% and 93.2% | viability, T/C (compound 0.1 µM) 96.8% and 99.3% and 96.4% | viability, T/C (compound 0.316 µM) 104% and 98% and 94.8% | viability, T/C (compound 1 µM) 107% (2×) and 100% | viability, T/C (compound 3.16 µM) 88.1% and 98.2% and 98% | viability, T/C (compound 10 µM) 86.5% and 87.4% and 72%

COc1cccc2c1C(=O)c1c(O)c3c(c(O)c1C2=O)CC(O)(C(=O)CO)CC3OC1CC(N)C(O)C(C)O1 (stereo not given) + Nc1ccc(C#CCN(C(=O)Cc2ncc(C(F)(F)F)cc2C(F)(F)F)c2ccc(F)cc2)nn1
55.7 nM: IC50 [1]
active: viability, T/C [9] 4.33% | viability, T/C [10] 0.75% | viability, T/C [11] 1.29% | viability, T/C [12] 3.55% | viability, T/C [15] 3.25% | viability, T/C [16] 0.65% | viability, T/C [17] 0.93% | viability, T/C [18] 3.6% | viability, T/C [21] 3.28% | viability, T/C [22] 0.8% | viability, T/C [23] 1.04% | viability, T/C [24] 3.39% | viability, T/C [26] 9.51% | viability, T/C [27] 3.66% | viability, T/C [28] 0.83% | viability, T/C [29] 1.07% | viability, T/C [30] 4.04% | viability, T/C [33] 4.28% | viability, T/C [34] 1.36% | viability, T/C [35] 1.16% | viability, T/C [36] 3.92% | viability, T/C [38] 9.57% | viability, T/C [39] 4.23% | viability, T/C [40] 1.37% | viability, T/C [41] 1.54% | viability, T/C [42] 4.35%
49.5 nM: IC50 [5]
57.9 nM: IC50 [3]
inactive: viability, T/C [7] 81.1% | viability, T/C [8] 18% | viability, T/C [13] 80.9% | viability, T/C [14] 15.8% | viability, T/C [19] 80.6% | viability, T/C [20] 22.5% | viability, T/C [25] 76.9% | viability, T/C [31] 73.7% | viability, T/C [32] 13% | viability, T/C [37] 49.4%
< 31.6 nM: IC50 [6]
54.6 nM: IC50 [2]
50 nM: IC50 [4]
